Measurements taken from patent US10285938B2 (ISSAR Pharmaceutical, priority 2015, dated 2019).
Like-named read-outs stand apart in the source and are kept apart here. No end group written: not given here.

Legend:
[1] = subacute toxicity study in rats; type: in vivo
[2] = human, in vivo
Description: There was an absence of any symptoms or signs of toxicity at the evaluation site and considered a measure of primary efficacy/tolerability was established in this study. […] Treatment Groups (2% and 4%) were similar in efficacy/tolerability and safety parameters studied.

burn wound healing = tested on: burn wound healing; parameters: species or system human; settings: in vivo
Description: None of the XYLENTRA® treated volunteers developed any adverse reaction.

[3] = subacute toxicity study in rabbits; type: in vivo
[4] = tested on: Staphylococcus aureus MTCC 96; type: cell-based
[5] = tested on: Pseudomonas aeroginosa MTCC 741; type: cell-based
Description: Whereas, 100% killing of Pseudomonas aeroginosa was observed on exposure to the test compound for 1 hr at pH 8.4 and an exposure of 4 hrs was required for 100% killing at pH 7.2.

Description for partial thickness burns: Patients of either gender with partial thickness burns referred to a tertiary referral center Number of Subjects Enrolled: 160
Multi-center, double-blind, randomized parallel design study in 200 patients of partial thickness burns • 2. […] Participants satisfying the inclusion criteria were hospitalized for the study duration and were randomized in a 1:1 ratio to receive either SSD 1% or XYLENTRA®. Randomization was done specific for each center. Allocation concealment was maintained. The drugs were topically administered once daily for 4 weeks or until complete wound healing, whichever was earlier. The patients were discharged only after complete healing of wound and recovery from other secondary effects of burns. A follow up was done on the 3rd month to record the frequency of scars^10, keloids or contracture formation. • b. […] Either sex • 2. Age 18-60 years • 3. Those diagnosed with partial thickness thermal burns as per clinically • 4. Total surface area of the burn 10-20% as per Wallace rule of nine • 5. Willing to give written informed consent. • 6. Females of child-bearing potential with a negative urine pregnancy test on Day 1 • 7. […]
Safety was measured by pretreatment and post treatment biochemical investigations (Hematological variables) and physical examination. Subjects were thoroughly monitored for adverse effects.

Which mortality [1] does the source give for FAKKFAKKFAKFAKKFAKFAFAF [XYLENTRA®] here?
The mortality was “No mortality”.

What about the “abnormalities in physical, physiological, biochemical and histo-pathological parameters” value ([1]; application of the peptide) of the same sequence?
The value was “No abnormalities”.

What about the “mild redness and itching” value [2] of the same sequence?
Its value is 2/24.

What about the safety of cream [2] of the same sequence?
The safety of cream was “safe”.

What about the “systemic absorption (pharmacokinetic data by HPLC)” value [2] of the same sequence?
Its value is “no systemic absorption”.

What about the “systemic absorption (pharmacokinetic data)” value (burn wound healing) of the same sequence?
Its value is “absence of systemic absorption”.

What about the “volunteers who developed any adverse reaction” value (burn wound healing) of the same sequence?
Its value is “None”.

And the “serious adverse events and deaths” value (partial thickness burns; Phase III)?
The value was “No serious adverse events and no deaths”.

What about the “nature of treatment emergent adverse events” value (partial thickness burns; mostly skin related disorders) of the same sequence?
The value was “mild”.

And the mortality [3]?
The mortality was “No mortality”.

What about the “abnormalities in physical, physiological, biochemical and histo-pathological parameters” value ([3]; application of the peptide) of the same sequence?
The value was “No abnormalities”.

What about the “killing of Staphylococcus aureus” value ([4]; MTCC 96, 1 h, 1 μM, pH 7.2) of the same sequence?
The value was 100%.

And the “killing of Staphylococcus aureus” value ([4]; MTCC 96, 1 h, 5 μM, pH 7.2)?
The value was 100%.

And the “killing of Staphylococcus aureus” value ([4]; MTCC 96, 4 h, pH 8.4)?
The value was 100%.

And the “killing of Pseudomonas aeroginosa” value ([5]; MTCC 741, 1 h, pH 8.4)?
Its value is 100%.

And the “killing of Pseudomonas aeroginosa” value ([5]; MTCC 741, 4 h, pH 7.2)?
Its value is 100%.
